Values joined by “and” are separate entries in the source; they are usually repeats but may differ in a detail not shown here. Identical values can stand only once.
Legend:
[1] = test system: methicillin-resistant S. aureus (MRSA) COL; assay: MIC assay, MRSA COL; assay type: cell-based, Staphylococcus aureus; details: MRSA COL
[2] = test system: Escherichia coli W3110; assay: MIC assay, E. coli; assay type: cell-based; details: Table S1, unit not given; method: starting concentration 100 μM
[3] = test system: MRSA NRS 119; assay: Broth microdilution MIC, MRSA NRS 119; assay type: cell-based, S. aureus; details: MRSA NRS 119
Experimental: (§1) The data is given in supporting information (Table S5). Before starting the experiment, a single colony was picked from MHA plate, inoculated in MHBII and incubated overnight at 37 °C with shaking for 18–24 h to get the starter culture. Antibiotic susceptibility testing was conducted according to the CLSI (Clinical & Laboratory Standards Institute) guidelines using the broth microdilution assay. 10 mg/mL stock solutions of test compounds were prepared in DMSO. Bacterial cultures were inoculated in MHBII and optical density (OD) was measured at 600 nm, followed by dilution to achieve ~10^6 CFU/mL. The compounds were tested from 64 to 0.5 mg/L in two-fold serial diluted fashion with 2.5 μL of each concentration added to well of a 96-well round bottom microtiter plate. Later, 97.5 μL of bacterial suspension was added to each well containing either test compound or appropriate controls. […] The MIC is defined as the lowest concentration of the compound at which there is absence of visible growth. For each test compound, MIC determinations were carried out independently three times using duplicate samples.

[4] = test system: MRSA NRS 129; assay: Broth microdilution MIC, MRSA NRS 129; assay type: cell-based, S. aureus; details: MRSA NRS 129
Experimental: as §1

[5] = test system: MRSA NRS 186; assay: Broth microdilution MIC, MRSA NRS 186; assay type: cell-based, S. aureus; details: MRSA NRS 186
Experimental: as §1

[6] = test system: MRSA NRS 192; assay: Broth microdilution MIC, MRSA NRS 192; assay type: cell-based, S. aureus; details: MRSA NRS 192
Experimental: as §1

[7] = test system: MRSA NRS 198; assay: Broth microdilution MIC, MRSA NRS 198; assay type: cell-based, S. aureus; details: MRSA NRS 198
Experimental: as §1

[8] = test system: VRSA VRS 12; assay: Broth microdilution MIC, VRSA VRS 12; assay type: cell-based, S. aureus; details: VRSA VRS 12
Experimental: as §1

[9] = test system: P. aeruginosa ATCC 27853; assay: Broth microdilution MIC, P. aeruginosa ATCC 27853; assay type: cell-based, Pseudomonas aeruginosa
Experimental: as §1

[10] = test system: GFP-MinD expression (B. subtilis TB35); assay: Translation inhibition assay (inducible GFP-MinD expression); assay type: cell-based, Bacillus subtilis; details: 3.125 µM Pt1, 25 µM Pt8; 60 min
Experimental: B. subtilis strain TB35 (Pxyl-minD-gfp) was grown in LB without inducer. After reaching an OD600 of 0.3, antibiotics and inducer (0.1% xylose) were added consecutively. Samples were withdrawn for microscopy after 60 min of treatment, spotted on glass slides covered with 1% agarose films, and imaged without delay.
Figure S11: MinD translation induction assay. TB35 (Pxyl-minD-gfp) was grown without xylose, thus not expressing GFP -MinD. […]
chloramphenicol (CHL). Images were taken after 60 min of induction/treatment. Scale bar 2 […]
(1 picture or pasted object on this page, not shown here)

[11] = Stability by 1H and 195Pt NMR; assay type: physicochemical
Experimental: Measurements were repeated after the 24 h and 48 h of incubations at 37 °C.
Then, 10% D2O was added and 1H NMR was recorded immediately and after 24 h of incubation at 37 °C.

[12] = test system: S. aureus ATCC 29213; assay: Post antibiotic effect (PAE); assay type: cell-based; details: for Time for 1 log10 increase in bacterial cfu count: 1 h exposure
Experimental: Post antibiotic effect (PAE) was determined as follows. […] Following incubation, cultures were centrifuged and washed twice with pre-warmed MHBII to remove any traces of antibiotics. Finally, cells were resuspended in drug-free MHBII and incubated further at 37 °C. Samples were taken every 1 h, serially diluted, and plated on tryptic soy agar (TSA) for enumeration of CFU. […] CFU observed immediately after the removal of the drug, and C in a similarly treated drug-free control.

[13] = test system: S. aureus ATCC 29213; assay: Murine superficial skin infection model; assay type: in vivo; details: topical 2% cream, twice daily for 4 days, Swiss mice
Experimental: The in vivo efficacy of Pt1 was determined in a superficial skin infection model. Briefly, male Swiss mice, 4–6 weeks old, weighing ∼22–25 g, were used throughout the study. Mice were caged alone in an individually vented cage (IVC) to check cross-contamination and to maintain aseptic conditions throughout the experiment. Ketamine and xylazine were prepared in distilled water, 40 mg/kg and 8 mg/kg of body weight, respectively, and injected intraperitoneally (IP) as a mixture of 100 μL in each mouse for anaesthesia. Then, we proceeded with the removal of fur by applying depilatory cream. The area was cleaned with sterile distilled water. Approximately 2 cm^2 of skin area was scratched until it became visibly reddened and glistening without any bleeding. For bacterial infection, a 10 μL droplet containing 10^7 CFU/mL of S. aureus ATCC 29213 was applied to the reddened area of skin. To confirm the infection, post 4 h, untreated mice were sacrificed, skin homogenized, and various dilutions of the treatment groups (6 mice per group) were plated on TSA plates. […] Henceforth, the drug regimen was comprised of twice daily application (in the morning and the evening, with an 8 h interval) for 4 days. Control mice were regularly treated with 25–30 mg each of 2% fusidic acid (LEO Pharma, Ballerup, Denmark), 2% infuzide, and base (vehicle). […]

[14] = design: method as in PMID 34018686; details: cited from earlier work
[15] = test system: E. coli lpxC; details: lipid A biosynthesis-impaired mutant; cited from earlier work

With `C1=C\CC/C=C\CC/1.[Cl][Pt][Cl]` [Pt1] the MIC [1] was 3.125 µM, the “Antibacterial activity against E. coli” value [2] was greater than 100 and the MIC [3] was 0.125 – 0.25 µg/mL and 0.33–0.67 µM. The MIC [4] was 0.125 – 0.25 µg/mL and 0.33–0.67 µM, the MIC [5] was 0.125 – 0.25 µg/mL and 0.33–0.67 µM and the MIC [6] was 0.125 – 0.25 µg/mL and 0.33–0.67 µM. For the same molecule, the MIC [7] was 0.25 µg/mL and 0.67 µM, the MIC [8] was 0.67 to 1.34 µM and the MIC [9] was greater than 64 µg/mL. For the same molecule, the “GFP-MinD expression after xylose induction” value [10] was “No differences in GFP-MinD expression were observed”, the “time compound remains intact in aqueous environment (1H-NMR)” value ([11]; DMSO-d6 with 10% D2O, 37 °C) was “at least 24 h” and the “time compound remains intact (NMR)” value ([11]; approximately 7 mM in DMSO-d6, 37 °C, 1H and 195Pt NMR) was “at least 48 h”. For the same molecule, the PAE ([12]; 1x MIC) was ~ 5.5 h, the “Time for 1 log10 increase in bacterial cfu count” value (shortened to “Time for 1 log10 increase”) ([12]; 1x MIC) was ~ 8 h and the PAE ([12]; 5x MIC) was ~ 5.5 h. For the same molecule, the “Time for 1 log10 increase” value ([12]; 5x MIC) was ~ 8 h, the PAE ([12]; 10x MIC) was ~ 5.5 h and the “Time for 1 log10 increase” value ([12]; 10x MIC) was ~ 8 h. For the same molecule, the “reduction in bacterial load compared to vehicle-treated group” value [13] was ~ 1.9 log10 CFU/g, the “antibacterial activity in human serum” value [14] was “lost its antibacterial activity completely” and the antibacterial activity [15] was “inactive”.

— paper PMC13183915, “A platinum butterfly effect: small changes turn an anticancer drug into a non-toxic metalloantibiotic with in vivo efficacy” (npj Antimicrobials and Resistance, 2026)
